Results from PubChem BioAssay (NCI).
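All cell lines were grown in 96-well plates and treated with compound for 48 hours. GI50: concentration for 50% inhibition of growth. TGI is the concentration that stops growth completely.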

Key:
Assay in all cases: DTP human tumour cell line panel, 48 h
IGROV1 ovarian = system: IGROV1 ovarian
SN12C renal = system: SN12C renal
NCI-H460 lung = system: NCI-H460 lung
KM12 colon = system: KM12 colon
SF-539 CNS = system: SF-539 CNS
HOP-62 NSCLC = system: HOP-62 NSCLC
786-0 renal = system: 786-0 renal
DMS 114 small cell lung = system: DMS 114 small cell lung
MDA-MB-231 breast = system: MDA-MB-231 breast
HOP-18 NSCLC = system: HOP-18 NSCLC

Row | Structure (SMILES) | TGI (IGROV1 ovarian) [µM] | TGI (SN12C renal) [µM] | TGI (NCI-H460 lung) [µM] | TGI (KM12 colon) [µM] | TGI (SF-539 CNS) [µM] | TGI (HOP-62 NSCLC) [µM] | TGI (786-0 renal) [µM] | TGI (DMS 114 small cell lung) [µM] | GI50 (IGROV1 ovarian) [µM] | GI50 (MDA-MB-231 breast) [µM] | TGI (MDA-MB-231 breast) [µM] | GI50 (SN12C renal) [µM] | GI50 (NCI-H460 lung) [µM] | GI50 (KM12 colon) [µM] | GI50 (SF-539 CNS) [µM] | GI50 (HOP-62 NSCLC) [µM] | GI50 (786-0 renal) [µM] | TGI (HOP-18 NSCLC) [µM]
1 | CC1CC(C)C2OC2(C)C[C@H](C)C(=O)NC(C)C(=O)N(C)[C@H](Cc2c(Br)[nH]c3ccccc23)C(=O)N[C@@H](c2ccc(O)cc2)CC(=O)O1 (stereo not given in full) | 0.683 | > 100 | > 100 | > 100 | 0.383 | 1.4 | 19.1 | 2.63 | – | – | – | – | – | – | – | – | – | –
2 | C[C@]12CC[C@H]3[C@@H](CC4SC(N)=NC45C/C(=N/NC(N)=O)CC[C@]35C)[C@@H]1CCC2=O (stereo not given in full) | 3.43 | 3.45 | 3.61 | 4.02 | 5.23 | 3.47 | 2.82 | – | 1.78 | 1.7 | 3.43 | 1.89 | 1.92 | 2.01 | 2.05 | 1.84 | 1.39 | –
3 | Cc1nc(N)nc(N)c1CCCc1ccccc1 | > 100 | 51.9 | > 100 | > 100 | > 100 | 56.8 | > 100 | > 100 | – | – | – | – | – | – | – | – | – | –
4 | O=CN1N=C(c2cccc(Nc3ccnc4cc(Cl)ccc34)c2)CC1c1ccccc1 (stereo not given) | > 100 | > 54.3 | 8.4 | 12.7 | 2.49 | 17.3 | 18 | – | 0.687 | 0.858 | > 21.3 | 0.617 | 0.393 | 0.315 | 0.37 | 0.495 | 0.543 | –
5 | C1CN(P2(N3CC3)=NP(N3CC3)(N3CC3)=NP(N3CC3)(N3CC3)=N2)CCO1 (stereo not given) | > 100 | > 100 | > 100 | > 100 | > 100 | > 83.4 | > 100 | > 100 | – | – | – | – | – | – | – | – | – | > 100
6 | Cc1cc(C)c(C(=O)O)c(SSc2cc(C)cc(C)c2C(=O)O)c1 | – | > 100 | > 100 | > 100 | > 100 | > 100 | > 100 | > 100 | – | – | – | – | – | – | – | – | – | –
7 | CCCCc1c2cnccc2c(CCCC)c2c1[nH]c1ccccc12 | 30.3 | 62.4 | > 100 | 24.7 | 12.6 | 18.8 | 24.1 | 18.3 | – | – | – | – | – | – | – | – | – | 24.8
8 | C=C1SC(=Nc2ccccc2Cl)N(C(=O)c2sc3ccccc3c2Cl)C12CCCCC2 | > 100 | > 100 | > 100 | > 100 | > 100 | > 100 | > 100 | – | 9.66 | 4.9 | > 100 | 6.99 | 4.71 | 4.73 | 34.9 | 9.08 | 37.9 | –
9 | CCCCCCCC(=O)SCC/C=C/[C@@H]1CC(=O)NCc2nc(cs2)C2=N[C@@](C)(CS2)C(=O)N[C@@H](C(C)C)C(=O)N1 | 1.8 | > 100 | > 100 | > 100 | > 57.8 | 13.1 | 19.7 | – | 0.0153 | 0.0286 | 31.5 | 0.034 | 0.0335 | 0.0389 | 0.0381 | 0.0321 | 0.139 | –
10 | NCCNC(=O)c1cccc2cc3ccccc3nc12 | > 28.6 | 20.8 | – | 20.4 | 16.9 | 5.02 | > 68.4 | 6.66 | – | – | – | – | – | – | – | – | – | > 40.9
11 | Cc1nc2ccccn2c1NC(=O)NNC(=S)Nc1ccc(F)cc1 | > 100 | > 100 | > 100 | > 100 | > 100 | > 100 | > 100 | – | > 100 | > 100 | > 100 | > 100 | > 100 | > 100 | > 100 | > 100 | > 100 | –
12 | Nc1nc2cc(CC[C@H]3C[C@@H](n4ccc5c(N)ncnc54)[C@H](O)[C@@H]3O)ccc2cc1Br | 23.1 | 22.4 | 26.5 | 25.9 | 27.6 | 24.2 | 28.9 | – | 10.2 | 11.1 | 24.4 | 8.59 | 10.9 | 11 | 13.2 | 8.91 | 12.7 | –
13 | Cc1ccc2nc3cc(C)c(=O)cc-3sc2c1 | > 100 | > 100 | > 100 | > 100 | > 100 | > 100 | > 100 | > 100 | – | – | – | – | – | – | – | – | – | > 100
14 | CCCCCC[C@@H](C)NC(=O)c1ccc(Nc2nc3ccccc3c3occc23)cc1 | 4.54 | > 100 | > 100 | > 100 | 5.29 | 27.7 | 26.3 | – | 1.61 | 10.2 | > 100 | 40.8 | 3.87 | 38 | 2.07 | 3.28 | 2.9 | –
15 | C=C1C(=O)O[C@H]2[C@H]1CC/C(COC(=O)OC/C1=C/CC[C@@]3(C)O[C@H]3[C@H]3OC(=O)[C@@H](CN(C)C)[C@@H]3CC1)=C\CC[C@@]1(C)O[C@@H]21 | 8.22 | 10.2 | 19.9 | 18.7 | 4.4 | 26.5 | 2.79 | – | 2.3 | 1.49 | 3.07 | 2.79 | 5.38 | 5.49 | 1.8 | 12.2 | 1.31 | –
16 | C[C@H]1COCCN1c1cc(C2(S(=O)(=O)C3CC3)CC2)nc(-c2ccc(NC(=S)NCCO)cc2)n1 | 0.119 | 61.2 | > 100 | > 100 | 0.347 | 4.37 | 3.49 | – | < 0.01 | 0.0327 | 26.2 | 0.0263 | 0.02 | 0.0494 | 0.0292 | 0.0486 | 0.0382 | –
17 | CC1(C)OC(=O)C(C#N)=C1C[n+]1ccccc1 | > 10 | > 10 | > 10 | > 10 | > 10 | > 10 | > 10 | – | – | – | > 10 | – | – | – | – | – | – | –
